Type in all cases: cell-based
Test [1] deals with MV4; 11 WT, MV4; 11 CRBN KO, and MOLM13 cells. Nature of the test: Cell growth ATPlite assay. Particulars: Homo sapiens; ATP level by ATPlite, 48 h treatment, normalized to DMSO; cell line not given. Here is the method: Human MV4; 11 WT, MV4; 11 CRBN KO, and MOLM13 cells were seeded in 384-well plate and treated with indicated compounds for 48 h. ATP level was measured by ATPlite (PerkinElmer) according to manufactures instructions. Experimental groups were measured in quadruplicate and ATP level was normalized to DMSO. IC50 was analyzed in GraphPad Prism 7.

For test [2], the target named is T1, SMARCA2 (Homo sapiens, UniProt P51531). Nature of the test: Immunoblot of SMARCA2 in A549 cells. Particulars: 1 μM. On the set-up: endogenous in cells; host or cells: A549. Here is the method: (§1) Human A549 were seeded in 6-well plate and treated with Ex. 4 or Ex. 2 for 16, 24 and 40 h. Human MOLM13 were seeded in 6-well plate and treated with Ex. 4 for 6, 10, 16, 24 h. After treatment cells were harvested and lysed in RIPA buffer (Thermo Scientific) with Halt Protease and Phosphatase Inhibitor Cocktail (Thermo Scientific). Protein was extracted and quantified by BCA Protein Assay Kit (Pierce). Protein lysate was separated by NuPAGE 3-8% Tris-Acetate protein gels (Invitrogen) and detected by SMARCA2, PARP and β-ACTIN antibodies (Cell Signaling Technology).
T1 sequence (P51531 whole entry): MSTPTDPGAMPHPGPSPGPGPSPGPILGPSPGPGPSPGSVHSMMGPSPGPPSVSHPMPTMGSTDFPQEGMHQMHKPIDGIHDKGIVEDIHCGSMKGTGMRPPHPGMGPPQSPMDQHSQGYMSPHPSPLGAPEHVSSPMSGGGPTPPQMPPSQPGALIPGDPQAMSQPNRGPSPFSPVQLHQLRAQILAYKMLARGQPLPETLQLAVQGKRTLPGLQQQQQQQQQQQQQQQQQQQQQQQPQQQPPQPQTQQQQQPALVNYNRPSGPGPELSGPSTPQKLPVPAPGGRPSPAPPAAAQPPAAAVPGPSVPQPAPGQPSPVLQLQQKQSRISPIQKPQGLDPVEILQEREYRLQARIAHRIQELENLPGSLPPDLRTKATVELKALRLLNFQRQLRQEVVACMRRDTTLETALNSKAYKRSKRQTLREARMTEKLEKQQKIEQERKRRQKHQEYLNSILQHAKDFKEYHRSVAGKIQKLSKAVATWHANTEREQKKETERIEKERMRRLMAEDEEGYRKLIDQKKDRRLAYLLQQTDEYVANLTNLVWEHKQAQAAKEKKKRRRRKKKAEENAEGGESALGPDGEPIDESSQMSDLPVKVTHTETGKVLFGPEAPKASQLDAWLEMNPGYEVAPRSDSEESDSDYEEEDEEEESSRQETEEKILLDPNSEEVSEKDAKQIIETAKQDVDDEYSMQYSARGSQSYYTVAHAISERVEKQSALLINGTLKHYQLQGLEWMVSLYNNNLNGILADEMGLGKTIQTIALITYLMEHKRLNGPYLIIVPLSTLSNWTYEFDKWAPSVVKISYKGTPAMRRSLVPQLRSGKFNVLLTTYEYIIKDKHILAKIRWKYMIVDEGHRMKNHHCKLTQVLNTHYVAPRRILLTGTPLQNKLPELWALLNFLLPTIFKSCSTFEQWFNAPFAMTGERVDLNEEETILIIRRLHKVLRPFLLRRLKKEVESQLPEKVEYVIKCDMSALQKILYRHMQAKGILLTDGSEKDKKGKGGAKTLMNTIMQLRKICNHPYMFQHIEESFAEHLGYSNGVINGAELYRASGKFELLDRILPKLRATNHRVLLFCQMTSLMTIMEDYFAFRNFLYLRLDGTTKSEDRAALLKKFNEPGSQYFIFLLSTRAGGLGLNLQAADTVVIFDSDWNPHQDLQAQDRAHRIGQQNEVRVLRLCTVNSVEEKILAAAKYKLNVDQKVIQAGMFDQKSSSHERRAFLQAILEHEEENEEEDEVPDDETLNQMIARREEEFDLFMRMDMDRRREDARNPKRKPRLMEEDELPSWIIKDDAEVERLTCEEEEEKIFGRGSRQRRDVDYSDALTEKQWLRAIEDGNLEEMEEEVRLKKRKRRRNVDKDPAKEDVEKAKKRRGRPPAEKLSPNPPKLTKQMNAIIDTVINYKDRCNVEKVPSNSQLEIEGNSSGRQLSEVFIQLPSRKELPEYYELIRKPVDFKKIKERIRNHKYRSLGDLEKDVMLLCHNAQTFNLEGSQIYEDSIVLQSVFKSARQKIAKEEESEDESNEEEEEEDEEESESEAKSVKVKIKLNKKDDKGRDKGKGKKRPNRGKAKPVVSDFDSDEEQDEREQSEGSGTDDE

The target of test [3] is T1, SMARCA2. Nature of the test: Immunoblot of SMARCA2 in MOLM13 cells. On the set-up: endogenous in cells. The protocol:
as §1

In test [1], `O=C1CCC(N2C(=O)c3cccc(NCCOCCOCCNC(=O)c4cccc(C#Cc5cc(NC(=O)Nc6ccnc(Cl)c6)ccn5)c4)c3C2=O)C(=O)N1` (stereo not shown) [Example 3] registered an IC50 of 100 to 1000 nM.

For `Cc1ncsc1-c1ccc(CNC(=O)[C@@H]2C[C@@H](O)CN2C(=O)[C@@H](NC(=O)COCCOCCOCCNC(=O)c2cccc(C#Cc3cc(NC(=O)Nc4ccnc(Cl)c4)ccn3)c2)C(C)(C)C)cc1` [Example 10], in test [1], the IC50 lay in the range of 1000 to 10000 nM.

Regarding `O=C1CCC(N2C(=O)c3cccc(NCCCCNC(=O)c4cccc(C#Cc5cc(NC(=O)Nc6ccnc(Cl)c6)ccn5)c4)c3C2=O)C(=O)N1` (stereo not shown) [Example 4], the figures for the “time after which cells started to exhibit protein degradation (Western Blot)” value on SMARCA2 [2] and at SMARCA2 [3] were 40 h and 16 h, respectively. In addition, the IC50 in test [1] is no more than 100 nM.

Take `O=C1CCC(N2C(=O)c3cccc(NCCCCCCCCCCCC(=O)OCc4cnc(Cl)cc4NC(=O)Nc4cc(C(F)F)ns4)c3C2=O)C(=O)N1` (stereo not shown) [Example 14]: in test [1], the IC50 is 1000 to 10000 nM.

In test [1], `Cc1ncsc1-c1ccc(CNC(=O)[C@@H]2C[C@@H](O)CN2C(=O)[C@@H](NC(=O)CCCCCNC(=O)c2cccc(C#Cc3cc(NC(=O)Nc4ccnc(Cl)c4)ccn3)c2)C(C)(C)C)cc1` [Example 9] registered an IC50 greater than 100000 nM.

In test [1], `O=C1CCC(N2C(=O)c3ccc(NCCOCCNC(=O)c4cccc(C#Cc5cc(NC(=O)Nc6ccnc(Cl)c6)ccn5)c4)cc3C2=O)C(=O)N1` (stereo not shown) [Example 8] registered an IC50 of no more than 100 nM.

For `O=C1CCC(N2C(=O)c3cccc(NCCNC(=O)c4cccc(C#Cc5cc(NC(=O)Nc6ccnc(Cl)c6)ccn5)c4)c3C2=O)C(=O)N1` (stereo not shown) [Example 11], the half-inhibitory concentration (IC50) in test [1] is greater than 100000 nM.

On to `O=C1CCC(N2C(=O)c3cccc(NCCCCCCCCNC(=O)c4cccc(C#Cc5cc(NC(=O)Nc6ccnc(Cl)c6)ccn5)c4)c3C2=O)C(=O)N1` (stereo not shown) [Example 2], for which the “time after which cells started to exhibit protein degradation (Western Blot)” value on SMARCA2 [2] is 40 h. The same compound yielded a half-maximal inhibitory concentration (IC50) in test [1] of 100 to 1000 nM.

`O=C1CCC(N2C(=O)c3cccc(NCCCCCCNC(=O)c4cccc(C#Cc5cc(NC(=O)Nc6ccnc(Cl)c6)ccn5)c4)c3C2=O)C(=O)N1` (stereo not shown) [Example 12] registered an IC50 in test [1] of no more than 100 nM.

As for `O=C1CCC(N2C(=O)c3ccc(NCCCCNC(=O)c4cccc(C#Cc5cc(NC(=O)Nc6ccnc(Cl)c6)ccn5)c4)cc3C2=O)C(=O)N1` (stereo not shown) [Example 7], the concentration for half-maximal inhibition (IC50) in test [1] was no more than 100 nM.
